# Laboratory results as given in paper PMC11885506, “Evaluation of a non-animal toolbox informed by adverse outcome pathways for human inhalation safety” (Frontiers in Toxicology, 2025).
# Entries after “also recorded” stand apart in the source; their conditions may differ. Structures can show the parent of a compound that is named as a salt.
# Assays:
# EpiAlveolar™ tissues [1] = assay: Cytokine and chemokine measurements (Luminex), EpiAlveolar model, Laboratory 1; format: cell-based, human; settings: for MinPoD: EpiAlveolar™ model Laboratory-1, biomarker ICAM-1
# From the text: (§1) EpiAlveolar™ system was obtained from MatTek Corporation (Ashland, MA, United States, cat. no. ALV-100-FT-MAC, ALV-100-FT-MAC-PE12). According to the supplier, the tissue systems were derived from primary human alveolar epithelial cells and primary pulmonary fibroblasts, both from a same healthy donor, and pulmonary endothelial cells from another healthy donor, and THP-1 cell line derived macrophages. These tissues were differentiated by the manufacturer prior to shipping to the testing facilities. […] TEER was measured and only systems with confirmed quality of the tight junction barrier (>300 Ω.cm^2) and with approved morphological inspection were used in the experiments.
# (§2) Vehicle control groups were also tested in parallel. Except for Doxorubicin (which underwent a 6-day chemical exposure + 6-day without exposure), exposures were conducted daily, on 12 consecutive days with different concentrations, through aerosol, apical or basolateral liquid exposure methods (Table 2). […] Each of the insert holders of the instrument base module was filled with Hanks’ Balanced Salt solution (HBSS) or PBS prior to placing the tissue inserts. Then, each test item solution/suspension was placed into the nebulizer reservoir for aerosol material exposure. The nebulizer was activated until the material solution/suspension was consumed and discharged into the main exposure chamber and allowed to fully gravity deposit out of the Cloud 12 (determined using a QCM). After exposure, the tissues were placed back into their multi-well culture plates containing the same medium, a further aliquot of media was added apically (20 µL for Akemi, 75 µL for all others except LPS) and returned to incubator until next exposure. Media used during the 6- or 12-day experimental period was prepared without Supplement X by MatTek. In medium exposure, the apical or basolateral liquid of each tissue was removed and replaced with each test item medium solution/suspension and returned to the incubator until the next exposure. After the beginning of the exposure cycles, tissues were only re-fed with new culture medium every 3-4 days.
# In Laboratory 1, basal media samples collected from the tissues were collected and stored at ≤ −60°C until analysis. For cytokine/chemokine measurements, 17-Plex, duplex and single-plex analyte detection panels were run on the samples using Human Luminex™ Multiplex Immunoassay kits (R&D Systems). The analytes quantified were TNF-α, IL-6, MMP-9, MMP-3, MMP-1, MMP-2, CXCL10, CCL2, IFN-γ, IL-1ra, CCL7, IL-1a, CCL26, CXCL9, VCAM-1, ICAM-1, and CXCL11 in a 17-plex assay; whereas IL-8 and Serpin E1 in a duplex assay and TGF-β1 in a single-plex assay.
# EpiAlveolar™ tissues [2] = assay: Cytokine and chemokine measurements (Luminex), EpiAlveolar model, Laboratory 2; format: cell-based, human; settings: for MinPoD: EpiAlveolar™ model Laboratory-2
# From the text: as §1, §2
# In Laboratory 2, apical culture media samples of the tissues were collected, stored at −80°C until shipment, in dry ice with temperature monitor control, to Unilever SERS, where the analyses were performed. Upon receipt, samples were again stored in the −80°C until the analysis using Human Luminex® Discovery Assay kits (R&D Systems). The same readouts investigated for MucilAir™-HF tissue samples were quantified in these samples.
# EpiAlveolar™ tissues [3] = assay: High-throughput transcriptomics (RNA-seq, PLIER latent variables), EpiAlveolar model, Laboratory 2; format: cell-based, human; settings: Transcriptomics, biomarker 30
# EpiAlveolar™ model = assay: Bioactivity exposure ratio (BER): lowest in vitro PoD of EpiAlveolar readouts / lower respiratory tract exposure estimate or Cmax; set-up: species or system human; settings: Plasma
# Protocol: (§4) Concentration and time-dependent changes in the bioactivity readout data were analyzed using a nonlinear state space model, based on the work of [Svensson and Schön (2017)]. […] All bioactivity readouts were included in the analysis (where available), i.e., measurements for tissue integrity loss (TEER) and functionality (MCC, CBF, and mucin secretion), cytokine/chemokine secretion, and the transcriptional LV values obtained using PLIER. The datasets were grouped so that a single state space model was used to capture all the responses (across time, concentration, and test material) for a single readout obtained within a particular study (laboratory/tissue model). Data were transformed to the log base 10 scale and normalized using z-scores, so that for a given readout Ytij from a laboratory/tissue model, the corresponding normalized value was given by y^tij=⁡log⁡10(Ytij)−μ)/σ . Here, the indexes i,j,t correspond to the different test materials, concentrations and timepoints, μ and σ are the sample mean and standard deviation of the control readout values obtained for the first timepoint. All measurement were then scaled so that the maximum median value across different replicates was one for all timepoints, readouts and test materials within a given laboratory/tissue model.
# The model consists of state variables xti,j , response variables ytij and the concentrations of material c^i,j . The response variables yti,j represent the normalized (see below) readout values at timepoint t for material exposure i,j . The mean of the response variable is given by xti,j , so that yti,j∼xti,j+et , where et represents random fluctuations in the readout values, due to observational noise, which are taken to be normally distributed. Dynamical changes in state values are given by xti,j=fxt−1i,j,cti,j+vt . Here, fxt−1i,j,c^i,j is a non-linear function that represents interactions between different state variables and the perturbation caused by the test material at a given exposure at concentration c^i,j, and vt represents random fluctuations in state dynamics (which are also normally distributed). Following [Svensson and Schön (2017)], the nonlinear terms are based on an approximation to Gaussian processes, which are obtained using a basis function expansion-based approach. Inference of the model parameters was performed in the framework of Bayesian inference, wherein random draws of the posterior distribution were obtained using Sequential Monte Carlo (SMC), see [Svensson and Schön (2017)] and [Chopin and Papaspiliopoulos (2020)]. For each state space model representing a particular laboratory/readout dataset, SMC simulation was run for three chains at 5,000 iterations each, and first 1,000 iterations were discarded from the final posterior samples. The Rhat convergence diagnostic (Rhat < 1.1) was used to ensure the simulations had converged.
# The state space model and posterior model parameter samples were then used to construct posterior predictive distributions of the response of each readout to a given test material for a given concentration and timepoint (see Figure 4). The posterior predictive distributions were used to estimate various statistics on the readout responses (median, 95% credible range etc.), PoDs, Concentration Dependency Scores (CDS) and two Effect Scores (increase and decrease). PoDs were defined as the concentration at which the mean response to a test material exceeded the 95% credible range of control for each timepoint (otherwise the mean response remains within the range of control). PoDs distribution for each timepoint, test material and readout, from which different statistical measures (e.g., the median, 95% credible range etc.) were calculated. The CDS was designed to provide confidence metric in whether an effect in the data was truly concentration dependent.
# patients = system: patients; set-up: method as in Budin et al., 2022; settings: ref Budin et al., 2022; cited from earlier work
# [4] = cited from earlier work
# EpiAlveolar™ tissues [5] = assay: Histology and immunohistochemistry, EpiAlveolar model, Laboratory 2; settings: Laboratory 2, 12-day period
# Protocol: To evaluate the quality of EpiAlveolar™ tissues over the 12-day experimental period, histological and immunohistochemistry assessments for detection of pan-cytokeratin, vimentin, aquaporin 5, pro-surfactant C, CD68, caspase-3, and/or αSMA were performed by Laboratories 1 and 2.
# Tissues were kept in 10% phosphate buffered formalin at 4°C for up to 48 h. Samples were then fixed in 70% ethanol and two strips of membrane were trimmed from each sample, processed, and paraffin-embedded to be cut at 5 µm thick sections and mounted to glass slides. The slides were then dewaxed in xylene, hydrated using graded industrial methylated spirit (70-100%) and stained with H&E for light microscope analysis.
# For immunohistochemistry analysis, tissue sections-containing microscope slides were obtained and processed using a Discovery Ultra Staining System (Roche), according to manufacturer’s instructions, except for anti-CD68 staining that was manually performed. The slides were incubated at 60°C for 8 min and then deparaffinized at 69°C for 24 min. After that, slides were incubated with inhibitor CM or peroxidase blocking solution (for anti-CD68 staining) for 8 min at room temperature. The slides were then incubated at room temperature with the following primary monoclonal antibodies, following manufacturer’s instructions: anti-α smooth muscle actin (αSMA) at 1:500 (Leica Microsystems Ltd), anti-CD68 at 1:3000 for macrophages (11192-T24, Sino Biological), anti-pro-surfactant C protein at 1:1000 (AB3786, Sigma-Aldrich), anti-caspase-3 at 1:10000 (AB4051, Abcam), anti-aquaporin 5 (31661, Invitrogen), anti-pan-cytokeratin for epithelial cells (760-2595, Roche), and anti-vimentin for mesenchymal cells (790-2917, Roche). […]
# A board-certified pathologist evaluated the changes (epithelial thinning, separation/detachment areas, necrosis, collagen, and presence of apoptotic cells, myofibroblasts, and type II pneumocytes) using a semi-quantitative scoring system (Table 2).
# MucilAir™-HF tissues [6] = assay: Mucin secretion measurement (enzyme-linked lectin assay), MucilAir-HF model; format: cell-based, human
# From the text: (§3) Tissues were handled as recommended by manufacturer’s instruction.
# Mucin production was quantified using an enzyme-linked lectin assay, following a protocol previously published ([Rossner et al., 2019]).
# MucilAir™-HF tissues [7] = assay: Mucin-5AC (Muc5AC) immunohistochemistry, goblet cells, MucilAir-HF model; format: cell-based, human; settings: for Increase in cells expressing Muc5AC protein: 30 min/day
# Protocol: as §3
# The presence of goblet cells was assessed through immunohistochemistry analysis for mucin-5AC protein (Muc5AC) detection. IL-13 and cytomix were used as positive controls (see item 2.5.2 for additional details). On last day of experiment (day 12), cultures (n = 3 tissues/group) were rinsed in PBS and fixed by immersion in 4% formaldehyde for 20 min. Fixed tissues were embedded into paraffin, sectioned, and processed for staining on paraffin sections. The immunostaining of the sections was performed with the Benchmark automated platform (Ventana-Roche, Hoffmann-La Roche Ltd, Basel, Switzerland) and the Autostainer Link 48 (Agilent, Santa Clara, CA. United States) with the detection kit Ultraview DAB (DAB chromogeny, Hoffmann-La Roche Ltd). Sections were pre-treated using heat mediated antigen retrieval with sodium citrate buffer, pH 6, for 20 min. The section was then incubated with recombinant anti-mucin 5AC antibody (ab3649, Abcam) for 1 h at room temperature, followed by biotinylated secondary antibody (Dako) and HRP detection (HRP conjugated ABC system, Vector Laboratories), according to manufacturer’s instruction. The section was then counterstained with hematoxylin (Sigma-Aldrich) and mounted with DPX, a synthetic non-aqueous mounting medium for microscopy. Digital images of the slides were then acquired, and quantitative image analysis performed using Image Pro Plus 6.2 (Media Cybernetics) to quantify the goblet cells on a section. The whole images of stained sections were scanned, and an average 15 images/section were analysed. The results are the ratio between the mucin 5AC stained area and the total surface area of the epithelium on the section.
# MucilAir™-HF model = assay: Bioactivity exposure ratio (BER): lowest in vitro PoD of MucilAir-HF readouts / upper respiratory tract exposure estimate
# Protocol: as §4
# The model consists of state variables xti,j , response variables ytij and the concentrations of material c^i,j . The response variables yti,j represent the normalized (see below) readout values at timepoint t for material exposure i,j . The mean of the response variable is given by xti,j , so that yti,j∼xti,j+et , where et represents random fluctuations in the readout values, due to observational noise, which are taken to be normally distributed. Dynamical changes in state values are given by xti,j=fxt−1i,j,cti,j+vt . […] For each state space model representing a particular laboratory/readout dataset, SMC simulation was run for three chains at 5,000 iterations each, and first 1,000 iterations were discarded from the final posterior samples. […]
# MucilAir™-HF tissues [8] = assay: Cytokine and chemokine measurements (Luminex), MucilAir-HF model; format: cell-based, human; settings: MucilAir-HF, 30 min/day exposure
# Protocol: as §3
# Basolateral medium samples of the tissue cultures were collected and stored at −80°C until analysis. The following cytokines/chemokines were quantified using customized Human Luminex® Discovery Assay kits (R&D Systems): chemokine (C-C motif) ligand (CCL) 2, CCL7, CCL26, C-X-C motif chemokine ligand (CXCL) 10, CXCL11, intercellular adhesion molecule-1 (ICAM-1), IL-1α, IL-6, IL-8, matrix metalloproteinase (MMP)-1, MMP-2, MMP-3, MMP-7, MMP-9, osteopontin, interferon (IFN)-γ, IL-1 receptor antagonist (IL-1Ra), urokinase-type plasminogen activator receptor (uPAR), tumour necrosis factor (TNF)-α, urokinase (uPA), serpin E1, tissue inhibitor of metalloproteinase 1 (TIMP-1), and TGF-β1. Samples were measured in technical triplicates according to the manufacturer’s recommendation using a Luminex Bio-Plex® 200 RUO System ([…]).
# NCI-H292 cells = settings: 1 µM for 48h; ref Matsuyama et al., 2018; cited from earlier work
# [9] = system: primary human nasal epithelial cells; set-up: method as in Uchenna Agu et al., 1999; settings: 10^-5 and 10^-3 M for 30-45 min; ref Uchenna Agu et al., 1999; cited from earlier work
# 16HBE14 o^− cells = settings: cited from earlier work
# [10] = 30 min/day exposure, day 12, High 1 concentration (third of the tested concentrations), average ± standard deviation
# [11] = 30 min/day exposure, day 12, Low concentration (first of the tested concentrations), average ± standard deviation
# [12] = 30 min/day exposure, day 12, Medium concentration (second of the tested concentrations), average ± standard deviation
compound,measurement,setting,value
"CCCCc1oc2ccccc2c1C(=O)c1cc(I)c(OCCN(CC)CC)c(I)c1 [Amiodarone, Amiodarone hydrochloride]",Cytokines/chemokines modulated (in words),"EpiAlveolar™ tissues [1]; EpiAlveolar, Laboratory 1",upregulated levels of ICAM-1
same,MinPoD,EpiAlveolar™ tissues [1]; Day 8,1.317 μg/cm2
same,MinPoD,EpiAlveolar™ tissues [1]; Day 12,0.971 μg/cm2
same,Cytokines/chemokines modulated (in words),"EpiAlveolar™ tissues [2]; EpiAlveolar, Laboratory 2",upregulated levels of ICAM-1; also recorded: downregulated levels of MMP-1 and MMP-2
same,MinPoD,"EpiAlveolar™ tissues [2]; Day 4, biomarker MMP-1",6.9528 μg/cm2
same,MinPoD,"EpiAlveolar™ tissues [2]; Day 8, biomarker ICAM-1",5.203 μg/cm2
same,MinPoD,"EpiAlveolar™ tissues [2]; Day 12, biomarker ICAM-1",5.033 μg/cm2
same,MinPoD,EpiAlveolar™ tissues [3]; Day 4,0.008474 μg/cm2
same,MinPoD,EpiAlveolar™ tissues [3]; Day 8,0.008494 μg/cm2
same,MinPoD,EpiAlveolar™ tissues [3]; Day 12,0.00835 μg/cm2
same,BER_min,"EpiAlveolar™ model; Day 4, EpiAlveolar™ model Laboratory-2",3.4764
same,BER_min,"EpiAlveolar™ model; Day 4, Transcriptomics",0.004237
same,BER_min,"EpiAlveolar™ model; Day 8, EpiAlveolar™ model Laboratory-1",0.6586
same,BER_min,"EpiAlveolar™ model; Day 8, EpiAlveolar™ model Laboratory-2",2.602
same,BER_min,"EpiAlveolar™ model; Day 8, Transcriptomics",0.004247
same,BER_min,"EpiAlveolar™ model; Day 12, EpiAlveolar™ model Laboratory-1",0.4855
same,BER_min,"EpiAlveolar™ model; Day 12, EpiAlveolar™ model Laboratory-2",2.516
same,BER_min,"EpiAlveolar™ model; Day 12, Transcriptomics",0.004174
same,Patients developing Amiodarone-induced pulmonary fibrosis following typical Amiodarone pneumonitis,patients,5%–7%
same,Risk,[4]; Scenario Plasma,High
same,Risk classification,"[4]; per benchmark chemical-exposure scenario (product and exposure scenario of the same line), based on historical safety decisions, ref References column of Table 3",High
same,Histological changes compared to vehicle and control groups (in words),EpiAlveolar™ tissues [5],changes were not observed
O=c1ccc2ccccc2o1 [Coumarin],MinPoD,"MucilAir™-HF tissues [6]; Day 8, biomarker Mucins",6.056 μg/cm2
same,MinPoD,"MucilAir™-HF tissues [6]; Day 12, biomarker Mucins",4.8708 μg/cm2
same,% of Muc5AC area,MucilAir™-HF tissues [7]; [10],3.29 ± 0.36%
same,% of Muc5AC area,MucilAir™-HF tissues [7]; [11],5.09 ± 0.57%
same,% of Muc5AC area,MucilAir™-HF tissues [7]; [12],6.83 ± 1.07%
same,% of Muc5AC area,"MucilAir™-HF tissues [7]; 6 h/day exposure, day 12, single tested concentration, average ± standard deviation",2.85 ± 0.43%
same,BER_min,"MucilAir™-HF model; Scenario1, Day 8",30691.6
same,BER_min,"MucilAir™-HF model; Scenario1, Day 12",24110.2
"CC(C)NCC(O)c1ccc(O)c(O)c1 (stereo not drawn) [Isoproterenol, Isoproterenol hydrochloride]",Increase in cells expressing Muc5AC protein,MucilAir™-HF tissues [7]; 50 μM,2.5 fold
same,Increase in cells expressing Muc5AC protein,MucilAir™-HF tissues [7]; 100 μM,3 fold
same,% of Muc5AC area,MucilAir™-HF tissues [7]; [10],18.91 ± 3.09%
same,% of Muc5AC area,MucilAir™-HF tissues [7]; [11],8.78 ± 1.62%
same,% of Muc5AC area,MucilAir™-HF tissues [7]; [12],15.53 ± 1.41%
same,Cytokines/chemokines modulated (in words),MucilAir™-HF tissues [8],downregulation of MMP-7 only
same,MUC5AC mRNA expression,NCI-H292 cells,significant increase in MUC5AC mRNA expression
same,CBF,[9],maximally and irreversibly increased ciliary CBF
same,IL-8 levels,"16HBE14 o^− cells; 1-30 nM for 18h, 16HBE cells, ref Lindén, 1996",IL-8 levels were also increased
same,IL-6 and IL-8 release,"16HBE14 o^− cells; 10-100 nM for 24h, ref Oehme et al., 2015",significant increase of IL-6 and IL-8 release
"IL-13: goblet cell hyper-, metaplasia agent used as positive control at 10 ng/mL",Increase in cells expressing Muc5AC protein compared to unexposed tissues,MucilAir™-HF tissues [7]; positive control IL-13 at 10 ng/mL,4 fold
same,% of Muc5AC area,"MucilAir™-HF tissues [7]; positive controls via liquid basal exposure, 30 min/day column, day 12, average ± standard deviation",26.35 ± 3.34%
